Reference: patent US9133115B2 (ACHILLION PHARMACEUTICALS, INC., priority 2008, dated 2015)

system: HCV replicon; test: HCV replicon replication assay (NPT ELISA) in Huh-7 replicon-containing cells; assay type: cell-based; conditions: Hepatitis C virus, 72 h; HCV replicon in Huh-7 cells, three days incubation; read-out: EC50
Summary of the method: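 Huh-7 cells carrying a bicistronic HCV replicon (HCV-IRES-neo, EMCV-IRES-driven NS3–NS5B, 3′-NTR) were seeded at 6000-7500 cells/well, grown 24 h to 60-70% confluence, then treated with graded compound concentrations. Replication was read as NPT level by capture ELISA (rabbit anti-NPTII, Eu-N1 secondary); interferon alpha served as positive control.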

| SMILES | EC50 [nM] |
| --- | --- |
| C=C[C@@H]1C[C@]1(NC(=O)[C@@H]1C[C@@H](OC(=O)N2c3ccccc3CCc3ccccc32)CN1C(=O)[C@@H](CC(=O)N1CCCCC1)C(C)(C)C)C(=O)NS(=O)(=O)C1CC1 [Compound 130, (3R,5S)-1-((S)-2-tert-butyl-4-oxo-4-(piperidin-1-yl)butanoyl)-5-((1R,2S)-1-(cyclo-propylsulfonyl-carbamoyl)-2-vinyl-cyclopropylcarbamo-yl)pyrrolidin-3-yl 10,11-dihydro-5H-dibenzo[b,f]azepine-5-carboxylate] | 1000 to 10000 |
| C=C[C@@H]1C[C@]1(NC(=O)[C@@H]1C[C@@H](OC(=O)N2c3ccccc3C=Cc3ccccc32)CN1C(=O)[C@@H](CC(=O)N1CCCCC1)C(C)(C)C)C(=O)NS(=O)(=O)C1CC1 [Compound 131, (Z)-((3R,5S)-1-((S)-2-tert-butyl-4-oxo-4-(piperidin-1-yl)butanoyl)-5-((1R,2S)-1-(cyclopropylsulfon-ylcarbamoyl)-2-vinylcyclopropyl-carbamoyl)pyr-rolidin-3-yl)5H-dibenzo[b,f]azepine-5-carboxylate] | 1000 to 10000 |
| C=C[C@@H]1C[C@]1(NC(=O)[C@@H]1C[C@H](Oc2cc(-c3ccccc3)nc3cc(OC)ccc23)CN1C(=O)[C@@H](CC(=O)N1CCCCC1)C(C)(C)C)C(=O)NS(=O)(=O)C1CC1 [Compound 132, (2S,4S)-1-((S)-2-tert-butyl-4-oxo-4-(piperidin-1-yl)butanoyl)-N-((1R,2S)-1-(cyclo-propylsulfonyl-carbamoyl)-2-vinylcyclopropyl)-4-(7-methoxy-2-phenylquinolin-4-yloxy)pyrrolidine-2-carboxamide] | < 1000 |
| C=C[C@@H]1C[C@]1(NC(=O)[C@@H]1C[C@@H](Oc2nc3ccccc3nc2-c2ccccc2)CN1C(=O)[C@@H](CC(=O)N1CCCCC1)C(C)(C)C)C(=O)NS(=O)(=O)C1CC1 [Compound 133, (2S,4R)-1-((S)-2-tert-butyl-4-oxo-4-(piperidin-1-yl)butanoyl)-N-((1R,2S)-1-(cyclo-propylsulfonyl-carbamoyl)-2-vinyl-cyclopropyl)-4-(3-phenylquinoxalin-2-yloxy)pyrrolidine-2-carboxamide] | 1000 to 10000 |
| C=C[C@@H]1C[C@]1(NC(=O)[C@@H]1C[C@@H](Oc2cc(-c3ccccc3)nc3cc(OC)ccc23)CN1C(=O)[C@H](CC(=O)N1CCCCC1)C(C)(C)C)C(=O)NS(=O)(=O)C1CC1 [Compound 134, (2S,4R)-1-((R)-2-tert-butyl-4-oxo-4-(piperidin-1-yl)butanoyl)-N-((1R,2S)-1-(cyclo-propylsulfonyl-carbamoyl)-2-vinylcyclopropyl)-4-(7-methoxy-2-phenylquinolin-4-yloxy)pyrrolidine-2-carboxamide] | 1000 to 10000 |
| C=C[C@@H]1C[C@]1(NC(=O)[C@@H]1C[C@@H](Oc2cc(-c3ccccc3)nc3cc(OC)ccc23)CN1C(=O)[C@@H](CC(=O)N1CCCCC1)C(C)(C)C)C(=O)NS(=O)(=O)C(C)CC (stereo partly drawn) [Compound 135, (2S,4R)-1-((S)-2-tert-butyl-4-oxo-4-(piperidin-1-yl)butanoyl)-N-((1R,2S)-1-(sec-butylsulfonyl-carbamoyl)-2-vinylcyclopropyl)-4-(7-methoxy-2-phenylquinolin-4-yloxy)pyrrolidine-2-carboxamide] | < 1000 |
| C=C[C@@H]1C[C@]1(NC(=O)[C@@H]1C[C@@H](Oc2cc(-c3ccccc3)nc3cc(OC)ccc23)CN1C(=O)[C@@H](CC(=O)N1CCCCC1)C(C)(C)C)C(=O)NS(=O)(=O)CCC [Compound 136, (2S,4R)-1-((S)-2-tert-butyl-4-oxo-4-(piperidin-1-yl)butanoyl)-4-(7-methoxy-2-phenylquinolin-4-yloxy)-N-((1R,2S)-1-(propylsulfonyl-carbamoyl)-2-vinyl-cyclopropyl)pyr-rolidine-2-carboxamide] | < 1000 |
